Assay results from patent publication US20230286973A1, “PROTEIN SECRETION INHIBITORS” (KEZAR LIFE SCIENCES, priority 2020, published 2023).

What was measured:
[1] = tested on: HER3-ss+4aa/Gaussia Luciferase; assay: Dox-Induced Her3-ss-Gluc Assay; format: cell-based; details: 24 hr Dox induction; 293FRT/TO cells; mean; read-out: 24 hr Dox Inducible Her3(ss + 4)Gluc 293FRT/TO: Mean IC50
Outline: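 Reporter line: Flp-In 293 T-REx, T-REx-regulated HER3-ss+4aa fused to Gaussia luciferase. Compound co-added with doxycycline after overnight plating, 37° C., 5% CO2.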

[2] = Liver Microsome Stability Assay (monkey); details: monkey liver microsomes, with NADPH, 1.0 uM compound
Protocol: (§1) Stability of a compound was assessed in the presence of liver microsomes from various sources—mouse, rat, monkey and human liver microsomes. 1.0 uM compound, 0.4% DMSO in 0.1 M Potassium Phosphate with 1.0 mg/mL liver microsomes, were incubated at 37° C. with or without 1 mM NADPH. The samples were quenched at 0, and 30 minutes.

[3] = Liver Microsome Stability Assay (rat); details: rat liver microsomes, with NADPH, 1.0 uM compound
Protocol: as §1

[4] = tested on: IL-2-FL/Gaussia Luciferase; assay: Dox Induced IL2-FL-Gluc Assay; format: cell-based; details: for IC50: 24 hr Dox induction, 293FRT/TO cells, mean, read-out: 24 hr Dox Inducible IL2FLGluc 293FRT/TO: Mean IC50; for 24 hr Dox Inducible IL2FLGluc 293FRT/TO: IL2/PD1: ratio of IL2FLGluc IC50 to PD1ssGluc IC50, '<=>' given where both are I.A.
Outline: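 Doxycycline induces an IL-2(1-153)–Gaussia luciferase fusion in a stable Flp-In 293 T-REx line. Compound exposure runs alongside induction at 37° C.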

[5] = tested on: multiple myeloma cell line U266B1; assay: U266 Cell Viability Assay; format: cell-based, human; details: Homo sapiens, U-266, 48 h, U266B1 cells, Celltiter-Glo
Outline: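 Viability is measured as luciferase signal from CellTiter-Glo following a 48-hour incubation with compound at 37° C. under 5% CO2. Where structures lack drawn stereochemistry, values refer to stereoisomer mixtures.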

[6] = tested on: TNFα-FL/Gaussia Luciferase; assay: Dox Induced TNFα-FL-Gluc Assay; format: cell-based; details: for IC50: 24 hr Dox induction, 293FRT/TO cells, mean, read-out: 24 hr Dox Inducible TNFaFLGluc 293FRT/TO: Mean IC50; for 24 hr Dox Inducible TNFaFLGluc 293FRT/TO: TNF/PD1: ratio of TNFaFLGluc IC50 to PD1ssGluc IC50, '<=>' given where both are I.A.
Outline: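 Doxycycline-inducible Gaussia luciferase-tagged full-length TNFα (1-233) was expressed in stable Flp-In 293 T-REx cells. Compounds were co-added with doxycycline and incubated at 37 °C, 5% CO2.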

[7] = tested on: PD1-ss+10aa/Gaussia Luciferase; assay: Dox-Induced PD1-ss-Gluc Assay; format: cell-based; details: 24 hr Dox induction; 293FRT/TO cells; mean; read-out: 24 hr Dox Inducible PD1ssGluc 293FRT/TO: Mean IC50
Outline: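 Gaussia luciferase fused downstream of the PD1 signal peptide plus 10 residues was expressed on doxycycline induction in stably transfected Flp-In 293 T-REx cells. Compounds were added with doxycycline and incubated at 37 °C, 5% CO2.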

[8] = Liver Microsome Stability Assay (human); details: human liver microsomes, with NADPH, 1.0 uM compound
Protocol: as §1

[9] = Liver Microsome Stability Assay (mouse); details: mouse liver microsomes, with NADPH, 1.0 uM compound
Protocol: as §1

[10] = tested on: multiple myeloma cell line NCI-H929; assay: H929 Cell Viability Assay; format: cell-based, human; details: Homo sapiens, NCI-H929, 48 h, NCI-H929 cells, Celltiter-Glo
Outline: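 Viability is scored by CellTiter-Glo luminescence following a 48-hour treatment at 37° C. Data for structures shown without stereochemistry refer to stereoisomer mixtures.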

| IC50 [1] [nM] | Liver Microsome Stability (Multiple Species): Monkey - % Remaining after 30 min w/NADPH [2] [%] | Liver Microsome Stability (Multiple Species): Rat - % Remaining after 30 min w/NADPH [3] [%] | IC50 [4] [nM] | EC50 [5] [µM] | IC50 [6] [µM] | IC50 [7] [nM] | Liver Microsome Stability (Multiple Species): Human - % Remaining after 30 min w/NADPH [8] [%] | Liver Microsome Stability (Multiple Species): Mouse - % Remaining after 30 min w/NADPH [9] [%] | EC50 [10] [µM] | Structure (SMILES) | 24 hr Dox Inducible IL2FLGluc 293FRT/TO: IL2/PD1 [4] | 24 hr Dox Inducible TNFaFLGluc 293FRT/TO: TNF/PD1 [6] |
| --- | --- | --- | --- | --- | --- | --- | --- | --- | --- | --- | --- | --- |
| > 25000 | 0.32 | 9.09 | > 25000 | > 25 | > 25 | > 25000 | 0.44 | 1.28 | > 25 | Cc1ccc(S(=O)(=O)N(C(=O)c2cccn2Cc2ccncc2)c2nc([C@H]3CCCN3S(=O)(=O)c3ccc(C)cc3)cs2)cc1 [Compound E52, (R)-1-(pyridin-4-ylmethyl)-N-tosyl-N-(4-(1-tosylpyrrolidin-2-yl)thiazol-2-yl)-1H-pyrrole-2-carboxamide] | 1 |  |
| > 25000 | 2.89 | 5.58 | > 25000 | > 25 | > 25 | > 25000 | 7.99 | 5 | > 25 | O=C(Nc1ccccn1)c1csc(NC(=O)c2cccn2Cc2ccncc2)n1 [Compound E53] | 1 |  |
| 581 | 0.56 | 0.83 | 932 | > 25 | 12.6 | 408 | 0.22 | 0.39 | 15.2 | N#Cc1cnccc1Cn1cccc1C(=O)Nc1nc([C@H]2CCCN2c2ccccc2)cs1 [Compound E59, (R)-1-((3-cyanopyridin-4-yl)methyl)-N-(4-(1-phenylpyrrolidin-2-yl)thiazol-2-yl)-1H-pyrrole-2-carboxamide] | 2.3 | 30.9 |
| 1280 | 0.19 | 2.04 | 1690 | > 25 | > 25 | 802 | 1.3 | 6.59 | 23.6 | N#Cc1cc(Cn2cccc2C(=O)Nc2nc([C@H]3CCCN3c3ccccc3)cs2)ccn1 [Compound E60, (R)-1-((2-cyanopyridin-4-yl)methyl)-N-(4-(1-phenylpyrrolidin-2-yl)thiazol-2-yl)-1H-pyrrole-2-carboxamide] | 2.1 | >31.2 |
| 8.52 | 0.19 | 15.4 | 9.89 | > 25 | 0.043 | 2.94 | 0.69 | 1.51 | 0.126 | Cc1ccc(N2CCC[C@@H]2c2csc(NC(=O)c3cccn3Cc3ccncc3)n2)nc1 [Compound E62, (R)-N-(4-(1-(5-methylpyridin-2-yl)pyrrolidin-2-yl)thiazol-2-yl)-1-(pyridin-4-ylmethyl)-1H-pyrrole-2-carboxamide] | 3.4 | 14.6 |
